Measured values: US20260272854A1, “PHARMACEUTICAL AGENT, MEDICINAL SOLUTION FOR CLEANING PULMONARY ALVEOLI, AND NEBULIZER” (priority 2019, published 2026)

Columns and labels:
[1] = tested on: ARDS model; assay: Dynamic lung compliance after pulmonary alveolar washing, ventilated ARDS model rat; assay type: in vivo; details: for lung compliance after pulmonary alveolar washing: 20 ml/kg, 5 times within 2 minutes; for time it took to recover to 0.9 (lung compliance before washing set as 1.0): average
Experimental: When the respiratory and circulatory dynamics of the rat were stable under artificial ventilation, an injection/suction operation using 20 ml/kg of a pulmonary alveolar washing solution (physiological saline) through the tracheal cannula was conducted […] consecutively within 2 minutes. […] Thus, an ARDS model whose pulmonary alveoli were washed with physiological saline was produced. The pulmonary alveolar washing operation means production of a respiratory distress syndrome (ARDS) model having decreased lung compliance.
(§1) The above ventilation was conducted by inverse ratio ventilation without using PEEP. The ventilation was conducted using ambient air (inhaled oxygen concentration FiO2: 0.21) without oxygen administration. The intra-airway pressure and the partial pressure of oxygen in the arterial blood (PaO2) were measured over time. Influence of the polyamines was analyzed, where dynamic lung compliance (=a tidal volume/a change in intra-airway pressure) (expression 1) was used as a measure of the distensibility of the lung, and PaO2/FiO2 (P/F ratio)<300 was used as a criterion for gas exchange dysfunction.
(§2) When the respiratory and circulatory dynamics of the rat were stable under artificial ventilation, 20 ml/kg of a pulmonary alveolar washing solution (physiological saline) was injected/suctioned consecutively 5 times within 2 minutes through the tracheal cannula. […] Thus, an ARDS model whose pulmonary alveoli were washed with physiological saline was produced.
as §2, with “(physiological saline containing 0.5 mM of Spm)” for “(physiological saline)”, “with 0.5 mM of Spm” for “with physiological saline”
as §1, with “polyamine” for “polyamines”, “compliance” for “compliance (=a tidal volume/a change in intra-airway pressure) (expression 1)”, “the P/F ratio<300” for “PaO2/FiO2 (P/F ratio)<300”
as §2, with “(physiological saline containing 1 mM of Spm)” for “(physiological saline)”, “with 1 mM of Spm” for “with physiological saline”
When the respiratory and circulatory dynamics of the rat were stable under artificial ventilation, 20 ml/kg of a pulmonary alveolar washing solution (0.3 mg/ml of a bovine lung extract artificial surfactant; the bovine lung extract artificial surfactant was formulated by dissolving Surfacten (trade name), manufactured by Mitsubishi Tanabe Pharma Corporation, in physiological saline to a concentration of 0.3 mg/ml, which is 1/100 of the concentration that is normally for administration to a preterm infant) was injected/suctioned consecutively 5 times within 2 minutes through the tracheal cannula. […] Note that it was confirmed that no polyamines are detected in the bovine lung extract artificial surfactant. […]

[2] = tested on: ARDS model; assay: Gas exchange dysfunction occurrence rate (P/F ratio<300) after pulmonary alveolar washing; assay type: in vivo, rat
Experimental: Ventilation was conducted by inverse ratio ventilation without using PEEP. The ventilation was conducted using ambient air (inhaled oxygen concentration FiO2: 0.21) without oxygen administration. The intra-airway pressure and the partial pressure of oxygen in the arterial blood (PaO2) were measured over time. Influence of the polyamine was analyzed, where dynamic lung compliance was used as a measure of the distensibility of the lung, and the P/F ratio<300 was used as a criterion for gas exchange dysfunction. […] Influence of Spm administered to pulmonary alveoli on the rate of occurrence of gas exchange dysfunction was analyzed, where the P/F ratio<300 was used as a criterion for gas exchange dysfunction. […] Cases (death) that death occurred before the measurement times, i.e., arterial blood sampling was not conducted, were counted as the case of occurrence of gas exchange dysfunction.

[3] = Surface tension of a hanging droplet, Young-Laplace method (curve fitting); assay type: physicochemical; details: for surface tension, polyamine alone: 0-10000 msec; for surface tension reduction effect, polyamine alone: without surfactant; for surface tension in 0.3 mg/ml bovine lung surfactant: 1 mM of polyamine, 10 seconds after production of hanging droplet
Experimental: Surface tension was measured by the Young-Laplace method (curve fitting) using a contact angle meter (B100, manufactured by Asumi Giken, Limited), on a droplet formed at the tip of a 20-gauge straight needle.
Tensiometer: contact angle meter (B100, manufactured by Asumi Giken, Limited)
Surface tension measurement method: Young-Laplace method (curve fitting)
Hanging droplet production method: a maximum size of droplet not to drop was produced at the tip of a 20-gauge straight needle (an autodispenser was used)
Imaging of hanging droplet: imaging was performed using a CCD camera
Bovine lung surfactant: a commercially available bovine lung extract artificial surfactant (Surfacten (trade name), manufactured by Mitsubishi Tanabe Pharma Corporation) was adjusted to a concentration of 30 mg/ml using physiological saline according to the package insert. […] In the drawings, the formulated surfactant solution is indicated by “30 mg/ml surf.”
10-fold diluted bovine lung surfactant: a commercially available bovine lung extract artificial surfactant (Surfacten (trade name), manufactured by Mitsubishi Tanabe Pharma Corporation) was adjusted to a concentration of 3 mg/ml using physiological saline. In the drawings, the formulated surfactant solution is indicated by “3 mg/ml surf.”
100-fold diluted bovine lung surfactant: a commercially available bovine lung extract artificial surfactant (Surfacten (trade name), manufactured by Mitsubishi Tanabe Pharma Corporation) was adjusted to a concentration of 0.3 mg/ml using physiological saline. Pulmonary surfactant was diluted with physiological saline, i.e., the resultant solution mimics the state of surfactant in a lung affected by ARDS. In the drawings, the formulated surfactant solution is indicated by “100-fold diluted bovine lung surfactant,” “0.3-mg/ml bovine lung surfactant,” “0.3 mg/ml surf,” or “ 1/100 Surf.”
1000-fold diluted bovine lung surfactant: a commercially available bovine lung extract artificial surfactant (Surfacten (trade name), manufactured by Mitsubishi Tanabe Pharma Corporation) was adjusted to a concentration of 0.03 mg/ml using physiological saline. In the drawings, the formulated surfactant solution is indicated by “0.03 mg/ml surf.”
Polyamine-containing 100-fold diluted bovine lung surfactant:
The solution was formulated using a commercially available polyamine chloride. […]

[4] = tested on: lung field; details: rat d: washed with physiological saline, then physiological saline containing 5 mM of Spm; applied pressure 20 cm H2O
Experimental: Plain X-ray imaging and X-ray CT imaging were performed, with an air pressure (0 and 20 cm H2O) exerted through a tracheal cannula, on rats that were euthanized after pulmonary alveolar washing or rats that were subjected to pulmonary alveolar washing immediately after euthanization.
A rat a was a control that was not subjected to pulmonary alveolar washing. Specifically, a tracheal cannula was inserted into a rat under general anesthesia, and the rat was euthanized without pulmonary alveolar washing.
A rat b was subjected to pulmonary alveolar washing with physiological saline containing 1 mM of Spm. Specifically, a tracheal cannula was inserted into a rat under general anesthesia, and after the rat was euthanized, 20 ml/kg of a pulmonary alveolar washing solution (physiological saline containing 1 mM of Spm) was injected/suctioned consecutively 5 times within 2 minutes through the tracheal cannula, and the washing solution remaining in the trachea was suctioned out.
A rat c was subjected to pulmonary alveolar washing with physiological saline. Specifically, a tracheal cannula was inserted into a rat under general anesthesia. […]

[5] = tested on: lung affected by ARDS; details: transairway administration of 5 mM of Spm, 20 ml/kg, 5 times, after first washing with physiological saline
Experimental: Specifically, influence of transairway administration of 5 mM of Spm to an ARDS model animal on lung compliance was analyzed.
A tracheal cannula was inserted into a rat under general anesthesia, and then euthanized. Immediately after that, artificial ventilation was conducted for 30 seconds, and lung compliance before washing that is calculated based on intra-airway pressure was set as 1.0 (“before washing” on the left slide of FIG. 10). Following this, a lung affected by ARDS was produced. Specifically, an injection/suction operation was conducted 5 times consecutively within 2 minutes using 20 ml/kg of physiological saline through the tracheal cannula. After the washing solution remaining in the tracheal cannula was suctioned out, artificial ventilation was conducted for 30 seconds, and the lung compliance of the lung affected by ARDS was calculated and compared with that of the normal lung (“first pulmonary alveolar washing” at the center of FIG. 10). […] After the washing solution remaining in the tracheal cannula was suctioned out, artificial ventilation was conducted for 30 seconds, and the lung compliance calculated based on intra-airway pressure (“second pulmonary alveolar washing” (open column) on the right side of FIG. 10) was compared with that of the lung affected by ARDS. […]

NCCCNCCCCNCCCN [Spm, spermine]
lung compliance after pulmonary alveolar washing ([1]; physiological saline containing 0.5 mM of Spm): lung compliance subsequently recovered | lung compliance after pulmonary alveolar washing ([1]; physiological saline containing 1 mM of Spm): lung compliance subsequently recovered | effect of improving lung compliance, 1 mM versus 0.5 mM of Spm ([1]; until 60 minutes after washing): higher for 1 mM of Spm | time it took to recover to 0.9 (lung compliance before washing set as 1.0) ([1]; washing with 0.5 mM of Spm): 60 min | time it took to recover to 0.9 (lung compliance before washing set as 1.0) ([1]; washing with 1 mM of Spm): 15 min | gas exchange dysfunction occurrence rate ([2]; 20 minutes after washing, 1 mM of Spm): lower than the others | gas exchange dysfunction occurrence rate ([2]; 1 hour after washing, Spm-containing physiological saline (0.5 and 1 mM) compared to physiological saline): significantly decreased | surface tension, polyamine alone ([3]; 0.5 mM of Spm without surfactant): 64 mN/m | surface tension of 0.3 mg/ml surf ([3]; presence of 0.5, 1 and 2 mM of Spm): reduced surface tension | surface tension reduction effect, polyamine alone [3]: does not have such a surface tension reduction effect | CT images of lung field [4]: no wide range of infiltrative shadow was observed | X-ray images of lung field [4]: the cardiac shadow became clear | lung compliance after second pulmonary alveolar washing [5]: improved the lung compliance

NCCCCNCCCN [Spd, spermidine]
surface tension reduction effect in diluted surfactant environment ([3]; Spd-containing 0.3 mg/ml bovine lung surfactant): has the surface tension reduction effect | surface tension reduction effect, polyamine alone [3]: does not have the surface tension reduction effect

NCCCCN [Put, putrescine]
surface tension reduction effect in diluted surfactant environment ([3]; Put-containing 0.3 mg/ml bovine lung surfactant, 60 seconds after formation of hanging droplet): observed on several tens of seconds after formation of a hanging droplet | surface tension reduction effect, polyamine alone [3]: does not have the surface tension reduction effect

CC(=O)NCCCNCCCCN [N1-AcSpd, N1-acetylspermidine]
surface tension in 0.3 mg/ml bovine lung surfactant [3]: reduction in surface tension | surface tension, polyamine alone ([3]; 1 mM without surfactant): 63 mN/m | surface tension reduction effect, polyamine alone [3]: does not have the surface tension reduction effect

NCCCCCCN [diaminohexane]
surface tension in 0.3 mg/ml bovine lung surfactant [3]: reduction in surface tension | surface tension, polyamine alone ([3]; 1 mM without surfactant): 62 mN/m | surface tension reduction effect, polyamine alone [3]: does not have the surface tension reduction effect
